Assays:
γ-secretase [1] = target: T1, γ-secretase (Homo sapiens, UniProt P49768); test: Membrane-based radioligand binding assay with [^131I]-PN67; conditions: for Blocking of PN67 binding to γ-secretase: Hela cell membrane, [^131I]-PN67 radioligand
γ-secretase [2] = target: γ-secretase (Mus musculus, UniProt P49769); test: PET imaging of 4T1-Luc tumors in BALB/c mice, baseline and blocking; assay type: in vivo; conditions: co-injection 0.2 mg/kg to 30 mg/kg, 2h post injection
γ-secretase [3] = target: T1, γ-secretase; test: In vitro γ-secretase activity assay; assay type: biochemical
[4] = Ex vivo biodistribution in 4T1-Luc allograft mouse model
[5] = biodistribution, post injection

| Ki (γ-secretase [1]) [nM] | IC50 (γ-secretase [3]) [nM] | Structure (SMILES) | Blocking of PN67 binding to γ-secretase (γ-secretase [1]) | other results |
| --- | --- | --- | --- | --- |
| 13.6 | 16.2 | CC(C)[C@H](O)C(=O)N[C@@H](C)C(=O)N[C@@H]1C(=O)N(C)CCc2ccccc21 [compound 1, Semagacestat] |  | Blocking of [^124I]-PN67 PET signal in 4T1-Luc tumor (γ-secretase [2]): blocked in a dose-dependent manner; Blocking of 4T1 tumor uptake of [^124I]-PN67 (biodistribution) ([4]; co-administered 30mg/kg with the tracer, 2h time point): significant reduction of tracer uptake |
|  |  | CCC[C@H](N[C@H]1CCc2cc(F)cc(F)c2C1)C(=O)Nc1cn(C(C)(C)CNCC(C)(C)C)cn1 [PF-03084014] | effectively block PN67 binding to γ-secretase |  |
|  |  | CC(C)(C(=O)NCC(F)(F)C(F)(F)F)C(=O)N[C@@H]1C(=O)Nc2ccccc2-c2ccccc21 [RO-4929097] | effectively block PN67 binding to γ-secretase |  |
| 4.3 | 3.5 | CC(C)[C@H](O)C(=O)N[C@@H](C)C(=O)N[C@@H]1C(=O)N(C)CCc2ccc(I)cc21 [compound 2, (S)-2-hydroxy-N-((S)-1-(((S)-8-iodo-3-methyl-2-oxo-2,3,4,5-tetrahydro-1H-benzo[d]azepin-1-yl)amino)-1-oxopropan-2-yl)-3-methylbutanamide] |  | Half-life in mouse models ([4]; based on ex vivo biodistribution and PET imaging): about 2 hours; Time of maximal radioactivity in large intestine [4, 5]: 2 h; Time of maximal radioactivity in liver [4, 5]: 0.5 h; Time of maximal radioactivity in small intestine [4, 5]: 1 h |
|  |  | O=C(O)CC[C@H]1CC[C@@](c2cc(F)ccc2F)(S(=O)(=O)c2ccc(Cl)cc2)CC1 [MK-0752] | effectively block PN67 binding to γ-secretase |  |

Reference: PMC8610083 (Clinical cancer research : an official journal of the …, 2021)
